According to patent US12714682B2, “Calixarene compounds and uses thereof” (UNIVERSITÄT WIEN, priority 2019, dated 2026):

Assays:
[1] = system: Osteopontin (OPN); experiment: 15N-1H HSQC NMR binding to osteopontin; conditions: HS compared with SCA-744
Protocol: In order to verify the predicted heparan sulfate mimicking activity of SCA-744, its physical interaction was probed with a prototypical HS-binding protein Osteopontin (OPN), a component of the extracellular matrix (ECM). To this end, NMR spectroscopy was used to directly probe the interaction and map the location of the interaction site along the protein backbone. The experimental strategy was as follows: First, ^15N-labelled OPN was prepared following well-established molecular biology technology techniques. Individual residue positions are directly monitored via the so-called ^15N-^1H Heteronuclear Single-Quantum Coherence (HSQC) spectroscopy, where individual cross peaks in the two-dimensional (2D) frequency spectrum corresponds to individual residue positions (amino acids) of the protein. Ligand binding changes the chemical environment of residues located in the binding site and leads to a change in the HSQC spectrum. Since the signal assignment is available, the residue positions which are affected by ligand binding can easily be identified by comparing HSQC spectra of the apo (ligand-free) and ligand-bound state of the protein (FIG. 7A). […] It is very convenient to analyze the chemical shift changes (induced by ligand binding) as a function of residue positions (FIG. 7B,C). Residues that display the largest chemical shift changes are typically part of the binding interface. […] Therefore, it can be concluded that SCA-744 and HS share the same ligand interaction sites and therefore are in competition for binding.

[2] = Cytotoxicity, CellTiter-Glo cell viability; assay type: cell-based; conditions: human, HEK 293 cells (printed as HEK 293 neuroblastoma cell lines), 72 h treatment, read-out: EC50 cytotoxicity (cell viability, ATP)
Protocol: FIG. 19.: In-vitro assessment of SCA-744 (A) and SCA-754 (B) cytotoxicity. Experiments were performed using HEK 293 […] cell lines. The effect of SCA-744 and SCA-754 on cell viability was assessed using a standard ATP, CellTiter-Glo® Luminescent Cell Viability Assay following 72 hours treatment.
In vitro assessment of cytotoxicity of SCA-744 and SCA-754 in mammalian cells. 72 h following SCA-744 and SCA-754-treatment, cell viability was assessed using a standard ATP method, CellTiter-Glo® Luminescent Cell Viability Assay.

[3] = system: THP-1 human monocytic cell line; experiment: LPS-stimulated THP-1 macrophage cytokine production (LEGENDplex); assay type: cell-based; conditions: 10 ng/ml LPS; 30 and 150 μM; FIG. 3
Protocol: A specific anti-inflammatory effect or activity of a compound is proven, if the compound can decrease the production of one of IL-1B, IL-6 and TNFα in human THP1 macrophages following LPS stimulation, as determined by a standard assay: THP-1 human monocytic cell lines are treated with 100 nM of Phorbol 12-myristate 13-acetate (PMA) for 48 h to induce mature macrophage-like state. Cells are then stimulated with 100 ng/ml of LPS in the absence and presence of 500 μM of compound. After 6 hours, supernatants of treated and untreated cells are collected, and cytokine levels determined using the Human Inflammatory panel LEGENDplex Human Pro-inflammatory Chemokine Panel (Cat. No. 740118). A positive result is considered if the compound is capable of reduce or block the production of IL-1β, IL-6, and TNFα in human THP1 macrophages after LPS stimulation.
Following cells were treated with [10 ng/ml] LPS in the absence and presence 10, 100 and 500 μM of SCA-744. Cytokine levels were determined by LEGENDplex™ Human Inflammation Panel assay from BioLegend. The bar heights represent the concentration means compared to LPS alone of 3 independent experiments carried out in triplicates.
Cells were treated with 100 nM of Phorbol 12-myristate 13-acetate (PMA) for 48 h to induce mature macrophage-like state. Cells were then stimulated with 100 ng/ml of Lipopolysaccharides (LPS) in the absence and presence of 500 μM of SCA-744. After 6 hours, supernatants of treated and untreated cells were collected and the levels of three major pro-inflammatory cytokines TNF-α, IL-6 and IL-1ß were determined using the Human Inflammatory panel of LEGENDPLEX Multi-Analyte Flow assay.

[4] = system: neuroblastoma cells; experiment: Protection from MPP+ induced oxidative stress, CellTiter-Glo viability; assay type: cell-based; conditions: for protection from MPP+ induced apoptosis / damage: 0.1-1000 μM, 12 h
Protocol: Several in-vivo and in-vitro studies find that MPP+ exerts oxidative stress on cells^22. MPP+×toxicity is based on its uptake into dopaminergic neurons. MPP+ accumulate into the mitochondria, inhibiting the complex-I leading to ATP depletion, increased reactive oxygen species (ROS) production, and apoptotic cell death^23. 12 h following MPP+ treatment and SCA-744 and CAL-X incubation, cell viability was assessed using a standard ATP method, CellTiter-Glo® Luminescent Cell Viability Assay.

Compound | binding sites on OPN (chemical shift changes by residue) [1] | EC50 at 72 h [2] | inhibition of LPS-induced TNF-α, IL-ß and IL-6 [3] | MPP+ protection relative to SCA-744 ([4]; 0.2 μM versus 1 μM) | protection from MPP+ induced apoptosis / damage [4] | protection from MPP+ induced apoptosis / damage ([4]; listed as CAL-X) | concentration for MPP+ protection ([4]; 12 h following MPP+ treatment, CellTiter-Glo)
heparan sulfate [HS, reference compound] | overlapping binding sites |  |  |  |  |  | 
Cc1cc2c(O)c(c1)Cc1cc(S(=O)(=O)O)cc(c1O)Cc1cc(S(=O)(=O)O)cc(c1O)Cc1cc(S(=O)(=O)O)cc(c1O)C2 [SCA-754, Trisodium 25,26,27,28-tetrahydroxycalix(4)arene-23-methyl-5,11,17-trisulfonate] |  | 1000 µM | Dose-dependent inhibition | 5 × times | protects against oxidative stress from MPP+ induced damage | protected neuroblastoma cells from MPP+ induced apoptosis | 0.2 µM
